Measurements: article PMC7968666, “The pharmacokinetics and drug-drug interactions of ivermectin in Aedes aegypti mosquitoes” (PLoS Pathogens, 2021)
Where two headings read alike, the source gives them in different places.

Columns and labels:
[1] = system: Aedes aegypti mosquitoes; assay: Drug effect on mosquito fecundity (eggs laid after 96 h); format: in vivo; settings: 4 days; IVM 0.1, KCZ 5, RIF 10, RTV 10, PBO 10 μg/ml in blood; 50 mosquitoes
Protocol: The mixtures were rotated at room temperature for 30 min to ensure a uniform drug distribution (Rotator Genie, Scientific Industries, Bohemia, USA). […] Twelve hours later, the tap water was also removed to starve the mosquitoes. […] The mosquitoes were then feeding from blood through the netting and the Parafilm membrane. […] The photoperiod of the climate chamber and the insectary were synchronised. […] The engorged mosquitoes were either directly frozen at -20°C or returned to the climate chamber for certain time periods to assess the PK. […] Blood feeding was done as described above. […] In contrast to the PK experiments, the mosquitoes had unlimited access to water because a moistened oviposition substrate was inserted into the paper cup. Fecundity was defined as the total number of eggs laid after 96 h. […] The filter paper served as the oviposition substrate. The cotton wool was soaked with fresh water and covered by a new filter paper after 48, 72, and 96 h post-treatment. After the assay, the eggs were left to mature for 24 h in the insectary. […] R Foundation for Statistical Computing, http://www.R-project.org, Vienna, Austria). Normality was assessed using the Shapiro-Wilk test. For normally distributed data (mortality, fecundity), group differences were assessed with one-way ANOVA testing, and, where applicable, followed up with Tukey's test. Group differences in fertility (not normally distributed) were evaluated with Kruskal-Wallis one-way analysis of variance, and Wilcoxon rank sum testing as post-hoc.

[2] = system: Aedes aegypti mosquitoes; assay: Drug effect on mosquito fertility (percentage of eggs hatched); format: in vivo; settings: 100 eggs laid 48-96 h post-treatment; IVM 0.1, KCZ 5, RIF 10, RTV 10, PBO 10 μg/ml in blood
Protocol: The mixtures were rotated at room temperature for 30 min to ensure a uniform drug distribution (Rotator Genie, Scientific Industries, Bohemia, USA). […] Twelve hours later, the tap water was also removed to starve the mosquitoes. […] The mosquitoes were then feeding from blood through the netting and the Parafilm membrane. […] The photoperiod of the climate chamber and the insectary were synchronised. […] The engorged mosquitoes were either directly frozen at -20°C or returned to the climate chamber for certain time periods to assess the PK. […] Blood feeding was done as described above. […] In contrast to the PK experiments, the mosquitoes had unlimited access to water because a moistened oviposition substrate was inserted into the paper cup. […] Any hatched larva was counted and transferred to a rearing tray with a plastic pipette. The fertility was calculated as the percentage of eggs hatched. […] R Foundation for Statistical Computing, http://www.R-project.org, Vienna, Austria). Normality was assessed using the Shapiro-Wilk test. For normally distributed data (mortality, fecundity), group differences were assessed with one-way ANOVA testing, and, where applicable, followed up with Tukey's test. Group differences in fertility (not normally distributed) were evaluated with Kruskal-Wallis one-way analysis of variance, and Wilcoxon rank sum testing as post-hoc.

[3] = Pharmacokinetic and drug-drug interaction studies in blood-fed mosquitoes (concentration-time courses, population PK modelling); settings: for Course / extent of elimination from the mosquitoes: IVM 0.1, KCZ 5, RIF 10, PBO 10 μg/ml in blood, up to 72 h; for Type of elimination kinetics in the mosquito: IVM 0.1, KCZ 5, RIF 10, RTV 10, PBO 10 μg/ml in blood; for Effect of the co-administered CYP modulator on the PK of ivermectin: ivermectin 0.1 μg/ml plus KCZ 5, RIF 10, RTV 10 or PBO 10 μg/ml in blood, 72 h
[4] = system: Aedes aegypti mosquitoes; settings: IVM 0.1, KCZ 5, RIF 10, RTV 10, PBO 10 μg/ml in blood, 50 mosquitoes

SMILES | Mosquito fecundity, Batch 1, mg eggs (4 days) [1] [mg eggs] | Mosquito fecundity, Batch 2, mg eggs (4 days) [1] [mg eggs] | Mosquito fecundity, Batch 3, mg eggs (4 days) [1] [mg eggs] | Mosquito fertility, Batch 1, hatching rate [2] [%] | Mosquito fertility, Batch 2, hatching rate [2] [%] | Mosquito fertility, Batch 3, hatching rate [2] [%] | Course / extent of elimination from the mosquitoes [3] | Type of elimination kinetics in the mosquito [3] | concentration at 0 h ([3]; female, Aedes aegypti, in vivo, CYP modulator concentration (ng/mg mosquito), Treatment KCZ + IVM (5 µg/ml KCZ, 0.1 µg/ml IVM), Batch 1, 0 h post feeding, single mosquitoes 1-20) [ng/g] | concentration at 72 h ([3]; female, Aedes aegypti, in vivo, CYP modulator concentration (ng/mg mosquito), Treatment KCZ + IVM (5 µg/ml KCZ, 0.1 µg/ml IVM), Batch 1, 72 h post feeding, single mosquitoes 1-20) [ng/g] | Effect of the co-administered CYP modulator on the PK of ivermectin [3] | Effect of the co-administered CYP modulator on the PK of ivermectin ([3]; listed as Ketoconazole) | Share of the dose excreted after 6 h ([3]; ketoconazole 5 μg/ml with ivermectin 0.1 μg/ml in blood) [%] | Mosquito survival (%) ([4]; 0 days post feeding) | Mosquito survival (%) ([4]; 1 day post feeding) | Tmax ([3]; female, Aedes aegypti, in vivo) [h] | concentration at 0 h ([3]; female, Aedes aegypti, whole mosquito (whole-body extract), oral, CYP modulator concentration (ng/mg mosquito), Treatment RTV + IVM (10 µg/ml RTV, 0.1 µg/ml IVM), Batch 3, 0 h post feeding, single mosquitoes 1-20) [ng/g]
CC(=O)N1CCN(c2ccc(OCC3COC(Cn4ccnc4)(c4ccc(Cl)cc4Cl)O3)cc2)CC1 (stereo not shown) [ketoconazole] | 30.30 | 22.14 | 33.56 | 60 | 73 | 82 | only few samples could be quantified 36 h post-feeding | first order elimination | 639 | 0 | not altered | No effect | 75 |  |  |  | 
CCCCOCCOCCOCc1cc2c(cc1CCC)OCO2 [piperonyl butoxide] | 32.86 | 20.66 | 35.34 | 81 | 71 | 86 |  |  |  |  |  |  |  |  |  |  | 
CO[C@H]1/C=C/O[C@@]2(C)Oc3c(C)c(O)c4c(O)c(c(/C=N/N5CCN(C)CC5)c(O)c4c3C2=O)NC(=O)/C(C)=C\C=C\[C@H](C)[C@H](O)[C@@H](C)[C@@H](O)[C@@H](C)[C@H](OC(C)=O)[C@@H]1C [rifampicin] | 32.99 | 21.40 | 36.14 | 83 | 78 | 79 | almost not eliminated during the first 2 days | accumulated over days |  |  |  |  |  | 100 | 100 | ~36 | 
CC(C)c1nc(CN(C)C(=O)N[C@H](C(=O)N[C@@H](Cc2ccccc2)C[C@H](O)[C@H](Cc2ccccc2)NC(=O)OCc2cncs2)C(C)C)cs1 [ritonavir] | 38.37 | 21.29 | 33.90 | 87 | 74 | 83 |  |  |  |  |  |  |  |  |  |  | 4230
